Species on record: Rattus norvegicus
Assay: DrugMatrix - Regimen: Daily Repeat
Assay type: toxicity, organism-based, Sprague-Dawley
Design: regimen Daily Repeat, gender Male, age 6-8 weeks
Settings: in vivo, po, route oral GAVAGE, […]; for TOTAL PROTEIN / URIC ACID / ALANINE AMINOTRANSFERASE / ALBUMIN / ALKALINE PHOSPHATASE / ASPARTATE AMINOTRANSFERASE / BLOOD UREA NITROGEN / CARBON DIOXIDE / CHOLESTEROL / CREATINE PHOSPHOKINASE / CREATININE / GLUCOSE / LACTATE DEHYDROGENASE / LIPASE / TOTAL BILIRUBIN: tissue Plasma; for ABSOLUTE BASOPHIL / ABSOLUTE EOSINOPHIL / ABSOLUTE LYMPHOCYTE / ABSOLUTE MONOCYTE / ABSOLUTE SEGMENTED NEUTROPHIL / BASOPHIL / EOSINOPHIL / ERYTHROCYTE COUNT / HEMATOCRIT / HEMOGLOBIN / LEUKOCYTE COUNT / LYMPHOCYTE / MEAN CORPUSCULAR HEMOGLOBIN / MEAN CORPUSCULAR HEMOGLOBIN CONCENTRATION / MEAN CORPUSCULAR VOLUME / MONOCYTE / NEUTROPHIL / NUCLEATED RED BLOOD CELLS / PLATELET COUNT: tissue Blood
[1] = 32 mg/kg, 120 h, dose level M2, time 5 day
[2] = 64 mg/kg, 72 h, dose level High, time 3 day
[3] = 64 mg/kg, 120 h, dose level High, time 5 day
[4] = 72 h, dose 2.5 mg/Kg, dose level Low, time 3 day
[5] = 120 h, dose 2.5 mg/Kg, dose level Low, time 5 day

CC/C(=C(\c1ccccc1)c1ccc(OCCN(C)C)cc1)c1ccccc1 [TAMOXIFEN]
TOTAL PROTEIN [1]: 6.4 G/DL
URIC ACID [1]: 2.17 mg/dL
ABSOLUTE BASOPHIL [2]: 0 CELLS/uL
ABSOLUTE EOSINOPHIL [2]: 0 CELLS/uL
ABSOLUTE LYMPHOCYTE [2]: 5492.33 CELLS/uL
ABSOLUTE MONOCYTE [2]: 14 CELLS/uL
ABSOLUTE SEGMENTED NEUTROPHIL [2]: 260.33 CELLS/uL
BASOPHIL [2]: 0%
EOSINOPHIL [2]: 0%
ERYTHROCYTE COUNT [2]: 5.73 x10E6/uL
HEMATOCRIT [2]: 35.43%
HEMOGLOBIN [2]: 13.57 G/DL
LEUKOCYTE COUNT [2]: 5.77 x10E3/uL
LYMPHOCYTE [2]: 94.67%
MEAN CORPUSCULAR HEMOGLOBIN [2]: 23.73 pg
MEAN CORPUSCULAR HEMOGLOBIN CONCENTRATION [2]: 38.3 G/DL
MEAN CORPUSCULAR VOLUME [2]: 62.03 fL
MONOCYTE [2]: 0.33%
NEUTROPHIL [2]: 5%
NUCLEATED RED BLOOD CELLS [2]: 0 /100WBC
PLATELET COUNT [2]: 879.67 x10E3/uL
ALANINE AMINOTRANSFERASE [2]: 151 u/L
ALBUMIN [2]: 3.87 G/DL
ALKALINE PHOSPHATASE [2]: 492 u/L
ASPARTATE AMINOTRANSFERASE [2]: 96.67 u/L
BLOOD UREA NITROGEN [2]: 10 mg/dL
CARBON DIOXIDE [2]: 30.33 mmol/L
CHOLESTEROL [2]: 38.33 mg/dL
CREATINE PHOSPHOKINASE [2]: 356.33 u/L
CREATININE [2]: 0.11 mg/dL
GLUCOSE [2]: 148 mg/dL
LACTATE DEHYDROGENASE [2]: 98 u/L
LIPASE [2]: 10.67 u/L
TOTAL BILIRUBIN [2]: 0.1 mg/dL
TOTAL PROTEIN [2]: 5.77 G/DL
URIC ACID [2]: 0.43 mg/dL
ABSOLUTE BASOPHIL [3]: 0 CELLS/uL
ABSOLUTE EOSINOPHIL [3]: 0 CELLS/uL
ABSOLUTE LYMPHOCYTE [3]: 6999 CELLS/uL
ABSOLUTE MONOCYTE [3]: 72.33 CELLS/uL
ABSOLUTE SEGMENTED NEUTROPHIL [3]: 495.33 CELLS/uL
BASOPHIL [3]: 0%
EOSINOPHIL [3]: 0%
ERYTHROCYTE COUNT [3]: 6.14 x10E6/uL
HEMATOCRIT [3]: 38.5%
HEMOGLOBIN [3]: 14.9 G/DL
LEUKOCYTE COUNT [3]: 7.57 x10E3/uL
LYMPHOCYTE [3]: 92.33%
MEAN CORPUSCULAR HEMOGLOBIN [3]: 24.27 pg
MEAN CORPUSCULAR HEMOGLOBIN CONCENTRATION [3]: 38.7 G/DL
MEAN CORPUSCULAR VOLUME [3]: 62.63 fL
MONOCYTE [3]: 1%
NEUTROPHIL [3]: 6.67%
NUCLEATED RED BLOOD CELLS [3]: 0.33 /100WBC
PLATELET COUNT [3]: 1000.33 x10E3/uL
ALANINE AMINOTRANSFERASE [3]: 226.33 u/L
ALBUMIN [3]: 3.63 G/DL
ALKALINE PHOSPHATASE [3]: 346.67 u/L
ASPARTATE AMINOTRANSFERASE [3]: 140 u/L
BLOOD UREA NITROGEN [3]: 7.67 mg/dL
CARBON DIOXIDE [3]: 30 mmol/L
CHOLESTEROL [3]: 43.33 mg/dL
CREATINE PHOSPHOKINASE [3]: 593 u/L
CREATININE [3]: 0.12 mg/dL
GLUCOSE [3]: 136.33 mg/dL
LACTATE DEHYDROGENASE [3]: 145.33 u/L
LIPASE [3]: 10.33 u/L
TOTAL BILIRUBIN [3]: 0.1 mg/dL
TOTAL PROTEIN [3]: 5.3 G/DL
URIC ACID [3]: 0.67 mg/dL
ABSOLUTE BASOPHIL [4]: 0 CELLS/uL
ABSOLUTE EOSINOPHIL [4]: 0 CELLS/uL
ABSOLUTE LYMPHOCYTE [4]: 5987.33 CELLS/uL
ABSOLUTE MONOCYTE [4]: 0 CELLS/uL
ABSOLUTE SEGMENTED NEUTROPHIL [4]: 346 CELLS/uL
BASOPHIL [4]: 0%
EOSINOPHIL [4]: 0%
ERYTHROCYTE COUNT [4]: 5.38 x10E6/uL
HEMATOCRIT [4]: 32.47%
HEMOGLOBIN [4]: 12.63 G/DL
LEUKOCYTE COUNT [4]: 6.33 x10E3/uL
LYMPHOCYTE [4]: 94.33%
MEAN CORPUSCULAR HEMOGLOBIN [4]: 23.5 pg
MEAN CORPUSCULAR HEMOGLOBIN CONCENTRATION [4]: 38.9 G/DL
MEAN CORPUSCULAR VOLUME [4]: 60.4 fL
MONOCYTE [4]: 0%
NEUTROPHIL [4]: 5.67%
NUCLEATED RED BLOOD CELLS [4]: 0 /100WBC
PLATELET COUNT [4]: 919.67 x10E3/uL
ALANINE AMINOTRANSFERASE [4]: 63.33 u/L
ALBUMIN [4]: 3.8 G/DL
ALKALINE PHOSPHATASE [4]: 412.33 u/L
ASPARTATE AMINOTRANSFERASE [4]: 76.33 u/L
BLOOD UREA NITROGEN [4]: 11 mg/dL
CARBON DIOXIDE [4]: 34 mmol/L
CHOLESTEROL [4]: 44.33 mg/dL
CREATINE PHOSPHOKINASE [4]: 193 u/L
CREATININE [4]: 0.1 mg/dL
GLUCOSE [4]: 160.67 mg/dL
LACTATE DEHYDROGENASE [4]: 89 u/L
LIPASE [4]: 10 u/L
TOTAL BILIRUBIN [4]: 0.13 mg/dL
TOTAL PROTEIN [4]: 5.67 G/DL
URIC ACID [4]: 0.57 mg/dL
ABSOLUTE BASOPHIL [5]: 0 CELLS/uL
ABSOLUTE EOSINOPHIL [5]: 0 CELLS/uL
ABSOLUTE LYMPHOCYTE [5]: 7101.67 CELLS/uL
ABSOLUTE MONOCYTE [5]: 21.33 CELLS/uL
ABSOLUTE SEGMENTED NEUTROPHIL [5]: 443.67 CELLS/uL
BASOPHIL [5]: 0%
EOSINOPHIL [5]: 0%
ERYTHROCYTE COUNT [5]: 5.73 x10E6/uL
HEMATOCRIT [5]: 35.9%
HEMOGLOBIN [5]: 14 G/DL
LEUKOCYTE COUNT [5]: 7.57 x10E3/uL
LYMPHOCYTE [5]: 93.67%
MEAN CORPUSCULAR HEMOGLOBIN [5]: 24.43 pg
MEAN CORPUSCULAR HEMOGLOBIN CONCENTRATION [5]: 39.07 G/DL
MEAN CORPUSCULAR VOLUME [5]: 62.63 fL
MONOCYTE [5]: 0.33%
NEUTROPHIL [5]: 6%
NUCLEATED RED BLOOD CELLS [5]: 0.33 /100WBC
PLATELET COUNT [5]: 1179.33 x10E3/uL
ALANINE AMINOTRANSFERASE [5]: 95 u/L
ALBUMIN [5]: 4.13 G/DL
ALKALINE PHOSPHATASE [5]: 534.33 u/L
ASPARTATE AMINOTRANSFERASE [5]: 94.33 u/L
BLOOD UREA NITROGEN [5]: 11.33 mg/dL
CARBON DIOXIDE [5]: 31 mmol/L
CHOLESTEROL [5]: 43 mg/dL
CREATINE PHOSPHOKINASE [5]: 303.67 u/L
CREATININE [5]: 0.1 mg/dL
GLUCOSE [5]: 148.33 mg/dL
LACTATE DEHYDROGENASE [5]: 142.67 u/L
LIPASE [5]: 10.67 u/L
TOTAL BILIRUBIN [5]: 0.1 mg/dL
TOTAL PROTEIN [5]: 6 G/DL
URIC ACID [5]: 0.73 mg/dL
